In the NIST ThermoML archive (doi:10.1016/j.fluid.2019.05.003):

Assay: xn = mol fraction of the nth substance listed
Settings: 101 kPa, Liquid; for viscosity: Falling or rolling sphere viscometry; for mass density: Vibrating tube method

CC[N+](C)(C)CCO.[Br-] [ethyl(2-hydroxyethyl)dimethylammonium bromide] + O
Settings	mass density [kg/m3]	viscosity [mPa·s]
298.15 K, x1 = 0.026	1061.1	1.249
298.15 K, x1 = 0.049	1103.4	1.613
298.15 K, x1 = 0.068	1132.6	2.066
298.15 K, x1 = 0.086	1155.4	2.594
298.15 K, x1 = 0.119	1190.7	4.028
298.15 K, x1 = 0.156	1220	6.186
298.15 K, x1 = 0.185	1238.4	9.494
298.15 K, x1 = 0.214	1254.1	13
298.15 K, x1 = 0.257	1273.4	20.35
298.15 K, x1 = 0.319	1293.9	35.33
303.15 K, x1 = 0.026	1059.2	1.117
303.15 K, x1 = 0.049	1101.3	1.463
303.15 K, x1 = 0.068	1130.3	1.836
303.15 K, x1 = 0.086	1153	2.292
303.15 K, x1 = 0.119	1188.1	3.487
303.15 K, x1 = 0.156	1217.2	5.347
303.15 K, x1 = 0.185	1235.6	8.22
303.15 K, x1 = 0.214	1251.3	11.13
303.15 K, x1 = 0.257	1270.5	17.24
303.15 K, x1 = 0.319	1290.9	29.38
308.15 K, x1 = 0.026	1057.2	1.017
308.15 K, x1 = 0.049	1099.1	1.296
308.15 K, x1 = 0.068	1127.9	1.645
308.15 K, x1 = 0.086	1150.4	2.046
308.15 K, x1 = 0.119	1185.4	3.095
308.15 K, x1 = 0.156	1214.5	4.593
308.15 K, x1 = 0.185	1232.8	7.127
308.15 K, x1 = 0.214	1248.4	9.581
308.15 K, x1 = 0.257	1267.6	14.63
308.15 K, x1 = 0.319	1288	24.38
313.15 K, x1 = 0.026	1055.1	0.917
313.15 K, x1 = 0.049	1096.7	1.171
313.15 K, x1 = 0.068	1125.4	1.484
313.15 K, x1 = 0.086	1147.9	1.839
313.15 K, x1 = 0.119	1182.7	2.771
313.15 K, x1 = 0.156	1211.7	4.112
313.15 K, x1 = 0.185	1229.9	6.185
313.15 K, x1 = 0.214	1245.5	8.263
313.15 K, x1 = 0.257	1264.6	12.43
313.15 K, x1 = 0.319	1285	20.45
318.15 K, x1 = 0.026	1052.6	0.841
318.15 K, x1 = 0.049	1093.9	1.068
318.15 K, x1 = 0.068	1122.8	1.35
318.15 K, x1 = 0.086	1145.2	1.663
318.15 K, x1 = 0.119	1179.9	2.486
318.15 K, x1 = 0.156	1208.8	3.655
318.15 K, x1 = 0.185	1227	5.378
318.15 K, x1 = 0.214	1242.5	7.16
318.15 K, x1 = 0.257	1261.7	10.68
318.15 K, x1 = 0.319	1282	17.3
323.15 K, x1 = 0.026	1050.7	0.775
323.15 K, x1 = 0.049	1091.4	0.98
323.15 K, x1 = 0.068	1120.1	1.234
323.15 K, x1 = 0.086	1142.5	1.513
323.15 K, x1 = 0.119	1177.1	2.242
323.15 K, x1 = 0.156	1205.9	3.307
323.15 K, x1 = 0.185	1224.1	4.688
323.15 K, x1 = 0.214	1239.6	6.248
323.15 K, x1 = 0.257	1258.7	9.249
323.15 K, x1 = 0.319	1279	14.91
328.15 K, x1 = 0.026	1048.6	0.72
328.15 K, x1 = 0.049	1088.9	0.902
328.15 K, x1 = 0.068	1117.2	1.132
328.15 K, x1 = 0.086	1139.7	1.382
328.15 K, x1 = 0.119	1174.2	2.034
328.15 K, x1 = 0.156	1203	2.962
328.15 K, x1 = 0.185	1221.2	4.143
328.15 K, x1 = 0.214	1236.6	5.498
328.15 K, x1 = 0.257	1255.7	8.108
328.15 K, x1 = 0.319	1276	12.84
333.15 K, x1 = 0.026	1046.5	0.669
333.15 K, x1 = 0.049	1085.9	0.837
333.15 K, x1 = 0.068	1114.5	1.046
333.15 K, x1 = 0.086	1136.8	1.273
333.15 K, x1 = 0.119	1171.2	1.857
333.15 K, x1 = 0.156	1200.1	2.679
333.15 K, x1 = 0.185	1218.2	3.576
333.15 K, x1 = 0.214	1233.6	4.864
333.15 K, x1 = 0.257	1252.7	7.142
333.15 K, x1 = 0.319	1273	11.49
338.15 K, x1 = 0.026	1044.3	0.632
338.15 K, x1 = 0.049	1083.9	0.786
338.15 K, x1 = 0.068	1112.2	0.965
338.15 K, x1 = 0.086	1134.1	1.174
338.15 K, x1 = 0.119	1168.1	1.707
338.15 K, x1 = 0.156	1197.1	2.439
338.15 K, x1 = 0.185	1215.2	3.122
338.15 K, x1 = 0.214	1230.6	4.315
338.15 K, x1 = 0.257	1249.7	6.33
338.15 K, x1 = 0.319	1270	10.29
343.15 K, x1 = 0.026	1042.2	0.588
343.15 K, x1 = 0.049	1081.4	0.737
343.15 K, x1 = 0.068	1109.6	0.906
343.15 K, x1 = 0.086	1131.4	1.112
343.15 K, x1 = 0.119	1165.6	1.569
343.15 K, x1 = 0.156	1194	2.202
343.15 K, x1 = 0.185	1212.1	2.835
343.15 K, x1 = 0.214	1227.6	3.849
343.15 K, x1 = 0.257	1246.6	5.548
343.15 K, x1 = 0.319	1266.9	9.319
348.15 K, x1 = 0.026	1040.1	0.56
348.15 K, x1 = 0.049	1078.9	0.679
348.15 K, x1 = 0.068	1107	0.853
348.15 K, x1 = 0.086	1128.3	1.071
348.15 K, x1 = 0.119	1162.8	1.454
348.15 K, x1 = 0.156	1190.9	2.022
348.15 K, x1 = 0.185	1209.4	2.576
348.15 K, x1 = 0.214	1224.5	3.479
348.15 K, x1 = 0.257	1243.6	4.96
348.15 K, x1 = 0.319	1263.9	8.658
